Source: ChEMBL document CHEMBL4834480, “Discovery of 3,5-Dimethyl-4-Sulfonyl-1H-Pyrrole-Based Myeloid Cell Leukemia 1 Inhibitors with High Affinity, Selectivity, and Oral Bioavailability” (J Med Chem, 2021)
Activity calls are given as the source filed them. The calls are words filed in the database; no cut-off is given here.

Columns and labels:
[1] = Permeability of the compound at pH 7.4 measured after 4 hrs by PAMPA assay; type: ADME; conditions: read-out: permeability
[2] = Stability of the compound in simulated intestinal fluid assessed as parent compound remaining measured after 6 hrs; type: ADME; conditions: read-out: Stabilty
[3] = Half life in Sprague-Dawley rat at 10 mg/kg, po measured up to 24 hrs by LC-MS/MS analysis; type: ADME, organism-based; conditions: in vivo
[4] = target: Voltage-gated inwardly rectifying potassium channel KCNH2 (Homo sapiens, UniProt Q12809); assay: Inhibition of human ERG
[5] = Half life in human liver microsomes; type: ADME, Microsome
NCI-H23 = assay: Antiproliferative activity against human NCI-H23 cells assessed as decrease in cell viability measured after 72 hrs by MTT assay; type: functional, cell-based; conditions: NCI-H23, 72 h
K562 [6] = assay: Induction of apoptosis in human K562 cells assessed as activation of caspase 3 up to 5 uM after 4 hrs by luminescence based microplate reader assay; type: functional, cell-based; conditions: dose microM <=5, time 4.0 hrs
[7] = Toxicity in BALB/c nude mouse xenografted with human MV4-11 cells assessed as effect on liver at 60 mg/kg, po administered every two days for 14 days by hematoxyin-eosin staining based analysis; type: organism-based; conditions: in vivo, 336 h, time 14 day
NCI-H929 [8] = assay: Induction of apoptosis in human NCI-H929 cells assessed as activation of caspase 3 after 4 hrs by luminescence based microplate reader assay; type: functional, cell-based; conditions: dose microM <=5, time 4.0 hrs
Bcl-2-like protein 2 = target: T1, Bcl-2-like protein 2 (Homo sapiens, UniProt Q92843); assay: Binding affinity to human partial length BCLW (M1 to R171 residues) expressed in bacterial expression system by BCL2SCAN assay
T1 sequence (Q92843 whole entry): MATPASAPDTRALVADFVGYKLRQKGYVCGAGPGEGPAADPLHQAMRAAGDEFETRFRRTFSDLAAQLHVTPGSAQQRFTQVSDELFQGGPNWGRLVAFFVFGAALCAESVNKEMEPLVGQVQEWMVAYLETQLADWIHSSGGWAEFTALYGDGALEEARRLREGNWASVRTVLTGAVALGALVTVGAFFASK

[9] = Toxicity in BALB/c nude mouse xenografted with human MV4-11 cells assessed as effect on heart weight at 20 mg/kg, ip administered every two days for 14 days; type: organism-based; conditions: in vivo, 336 h, time 14 day
[10] = Toxicity in BALB/c nude mouse xenografted with human MV4-11 cells assessed as effect on liver weight at 60 mg/kg, po administered every two days for 14 days; type: organism-based; conditions: in vivo, 336 h, time 14 day
[11] = Intrinsic clearance in human liver microsomes; type: ADME, Microsome; conditions: read-out: CLH
MV4-11 [12] = assay: Antitumor activity against human MV4-11 cells xenografted in BALB/c nude mouse assessed as induction of tumor necrosis at 60 mg/kg, po administered every two days for 14 days by hematoxyin-eosin staining based analysis; type: functional, organism-based; conditions: time 14.0 day
[13] = Oral bioavailability in Sprague-Dawley rat at 10 mg/kg measured up to 24 hrs by LC-MS/MS analysis; type: ADME, organism-based; conditions: in vivo
NCI-H929 [14] = assay: Induction of apoptosis in human NCI-H929 cells measured after 48 hrs by annexinV-FITC/propidium iodide staining based flow cytometry analysis; type: functional, cell-based; conditions: dose 1-5 µM
[15] = Toxicity in BALB/c nude mouse xenografted with human MV4-11 cells assessed as effect on heart weight at 60 mg/kg, po administered every two days for 14 days; type: organism-based; conditions: in vivo, 336 h, time 14 day
[16] = Toxicity in BALB/c nude mouse xenografted with human MV4-11 cells assessed as effect on liver at 20 mg/kg, ip administered every two days for 14 days by hematoxyin-eosin staining based analysis; type: organism-based; conditions: in vivo, 336 h, time 14 day
SK-BR-3 = assay: Antiproliferative activity against human SK-BR-3 cells assessed as decrease in cell viability measured after 72 hrs by MTT assay; type: functional, cell-based; conditions: SK-BR-3, 72 h
[17] = Apparent volume of distribution in Sprague-Dawley rat at 3 mg/kg, iv measured up to 24 hrs by LC-MS/MS analysis; type: ADME, organism-based; conditions: in vivo, read-out: Vz
MV4-11 [18] = assay: Antitumor activity against human MV4-11 cells xenografted in BALB/c nude mouse assessed as tumor growth inhibition by measuring T/C ratio at 20 mg/kg, ip administered every two days for 14 days relative to control; type: functional; conditions: time 14 day
[19] = Toxicity in BALB/c nude mouse xenografted with human MV4-11 cells assessed as effect on kidney at 20 mg/kg, ip administered every two days for 14 days by hematoxyin-eosin staining based analysis; type: organism-based; conditions: in vivo, 336 h, time 14 day
[20] = Stability of the compound in simulated gastric fluid assessed as parent compound remaining measured after 6 hrs; type: ADME; conditions: read-out: Stabilty
MV4-11 [21] = assay: Antiproliferative activity against human MV4-11 cells assessed as decrease in cell viability measured after 72 hrs by MTT assay; type: functional, cell-based; conditions: MV4-11, 72 h
[22] = Toxicity in BALB/c nude mouse xenografted with human MV4-11 cells assessed as effect on body weight at 20 mg/kg, ip administered every two days for 14 days; type: organism-based; conditions: in vivo, 336 h, time 14 day
MV4-11 [23] = assay: Induction of apoptosis in human MV4-11 cells xenografted in BALB/c nude mouse assessed as induction of PARP cleavage at 60 mg/kg, po administered every two days for 14 days by Western blot analysis; type: functional, organism-based; conditions: time 14.0 day
[24] = Stability of the compound in human plasma assessed as parent compound remaining measured after 2 hrs by LC-MS/MS analysis; type: ADME, cell-free; conditions: read-out: Stabilty
P-gp = P-gp (Homo sapiens, UniProt P08183); assay: Substrate activity at P-gp in human Caco-2 cells assessed as permeability across apical to basolateral membrane by LC-MS/MS analysis; type: ADME, cell-based; conditions: read-out: permeability
[25] = Tmax in Sprague-Dawley rat at 10 mg/kg, po measured up to 24 hrs by LC-MS/MS analysis; type: ADME, organism-based; conditions: in vivo
[26] = Clearance in Sprague-Dawley rat at 3 mg/kg, iv measured up to 24 hrs by LC-MS/MS analysis; type: ADME, organism-based; conditions: in vivo
[27] = Stability of the compound in mouse plasma assessed as parent compound remaining measured after 2 hrs by LC-MS/MS analysis; type: ADME, cell-free; conditions: read-out: Stabilty
[28] = Toxicity in BALB/c nude mouse xenografted with human MV4-11 cells assessed as effect on kidney weight at 20 mg/kg, ip administered every two days for 14 days; type: organism-based; conditions: in vivo, 336 h, time 14 day
K562 [29] = assay: Induction of apoptosis in human K562 cells assessed as activation of caspase 7 up to 5 uM after 4 hrs by luminescence based microplate reader assay; type: functional, cell-based; conditions: dose microM <=5, time 4.0 hrs
[30] = Half life in Sprague-Dawley rat at 3 mg/kg, iv measured up to 24 hrs by LC-MS/MS analysis; type: ADME, organism-based; conditions: in vivo
[31] = Toxicity in BALB/c nude mouse xenografted with human MV4-11 cells assessed as effect on heart at 20 mg/kg, ip administered every two days for 14 days by hematoxyin-eosin staining based analysis; type: organism-based; conditions: in vivo, 336 h, time 14 day
[32] = target: Apoptosis regulator Bcl-2 (Homo sapiens, UniProt P10415); assay: Binding affinity to human partial length BCL2 (M1 to D211 residues) expressed in bacterial expression system by BCL2SCAN assay
K562 [33] = assay: Antiproliferative activity against human K562 cells assessed as decrease in cell viability measured after 72 hrs by MTT assay; type: functional, cell-based; conditions: K562, 72 h

Sequence of P-gp (P08183 whole entry): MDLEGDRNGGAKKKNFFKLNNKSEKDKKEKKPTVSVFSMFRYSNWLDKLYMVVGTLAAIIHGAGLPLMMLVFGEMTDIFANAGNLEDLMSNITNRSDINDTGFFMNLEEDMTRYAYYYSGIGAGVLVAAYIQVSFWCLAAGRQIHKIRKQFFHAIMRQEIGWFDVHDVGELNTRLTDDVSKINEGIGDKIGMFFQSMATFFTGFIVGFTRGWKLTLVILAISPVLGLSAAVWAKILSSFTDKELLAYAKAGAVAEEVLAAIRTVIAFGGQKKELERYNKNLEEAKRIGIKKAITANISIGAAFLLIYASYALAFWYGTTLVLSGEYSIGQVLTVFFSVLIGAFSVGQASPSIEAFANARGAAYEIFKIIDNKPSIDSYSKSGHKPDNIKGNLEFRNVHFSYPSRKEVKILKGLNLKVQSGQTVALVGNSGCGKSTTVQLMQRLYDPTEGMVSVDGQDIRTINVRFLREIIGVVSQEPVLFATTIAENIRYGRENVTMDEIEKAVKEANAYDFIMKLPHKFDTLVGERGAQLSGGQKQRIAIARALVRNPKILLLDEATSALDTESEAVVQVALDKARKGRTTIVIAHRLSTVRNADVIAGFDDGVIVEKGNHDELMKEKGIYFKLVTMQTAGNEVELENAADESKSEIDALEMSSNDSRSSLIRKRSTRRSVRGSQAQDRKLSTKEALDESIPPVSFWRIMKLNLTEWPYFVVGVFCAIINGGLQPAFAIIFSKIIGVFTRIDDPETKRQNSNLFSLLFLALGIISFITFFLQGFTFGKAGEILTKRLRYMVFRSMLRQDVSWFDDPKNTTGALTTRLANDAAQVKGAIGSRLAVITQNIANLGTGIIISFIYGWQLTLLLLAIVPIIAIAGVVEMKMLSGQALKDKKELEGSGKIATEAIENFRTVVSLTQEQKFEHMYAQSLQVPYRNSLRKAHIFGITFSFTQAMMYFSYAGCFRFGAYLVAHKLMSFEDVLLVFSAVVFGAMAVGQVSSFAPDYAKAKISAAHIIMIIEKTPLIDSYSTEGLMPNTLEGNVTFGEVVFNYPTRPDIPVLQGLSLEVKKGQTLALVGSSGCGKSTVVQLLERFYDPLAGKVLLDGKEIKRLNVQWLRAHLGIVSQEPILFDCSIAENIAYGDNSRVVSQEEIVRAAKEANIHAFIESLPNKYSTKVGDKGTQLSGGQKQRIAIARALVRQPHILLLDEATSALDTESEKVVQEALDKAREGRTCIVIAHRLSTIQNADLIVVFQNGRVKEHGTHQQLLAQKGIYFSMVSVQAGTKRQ
Sequence of Voltage-gated inwardly rectifying potassium channel KCNH2 (Q12809 whole entry): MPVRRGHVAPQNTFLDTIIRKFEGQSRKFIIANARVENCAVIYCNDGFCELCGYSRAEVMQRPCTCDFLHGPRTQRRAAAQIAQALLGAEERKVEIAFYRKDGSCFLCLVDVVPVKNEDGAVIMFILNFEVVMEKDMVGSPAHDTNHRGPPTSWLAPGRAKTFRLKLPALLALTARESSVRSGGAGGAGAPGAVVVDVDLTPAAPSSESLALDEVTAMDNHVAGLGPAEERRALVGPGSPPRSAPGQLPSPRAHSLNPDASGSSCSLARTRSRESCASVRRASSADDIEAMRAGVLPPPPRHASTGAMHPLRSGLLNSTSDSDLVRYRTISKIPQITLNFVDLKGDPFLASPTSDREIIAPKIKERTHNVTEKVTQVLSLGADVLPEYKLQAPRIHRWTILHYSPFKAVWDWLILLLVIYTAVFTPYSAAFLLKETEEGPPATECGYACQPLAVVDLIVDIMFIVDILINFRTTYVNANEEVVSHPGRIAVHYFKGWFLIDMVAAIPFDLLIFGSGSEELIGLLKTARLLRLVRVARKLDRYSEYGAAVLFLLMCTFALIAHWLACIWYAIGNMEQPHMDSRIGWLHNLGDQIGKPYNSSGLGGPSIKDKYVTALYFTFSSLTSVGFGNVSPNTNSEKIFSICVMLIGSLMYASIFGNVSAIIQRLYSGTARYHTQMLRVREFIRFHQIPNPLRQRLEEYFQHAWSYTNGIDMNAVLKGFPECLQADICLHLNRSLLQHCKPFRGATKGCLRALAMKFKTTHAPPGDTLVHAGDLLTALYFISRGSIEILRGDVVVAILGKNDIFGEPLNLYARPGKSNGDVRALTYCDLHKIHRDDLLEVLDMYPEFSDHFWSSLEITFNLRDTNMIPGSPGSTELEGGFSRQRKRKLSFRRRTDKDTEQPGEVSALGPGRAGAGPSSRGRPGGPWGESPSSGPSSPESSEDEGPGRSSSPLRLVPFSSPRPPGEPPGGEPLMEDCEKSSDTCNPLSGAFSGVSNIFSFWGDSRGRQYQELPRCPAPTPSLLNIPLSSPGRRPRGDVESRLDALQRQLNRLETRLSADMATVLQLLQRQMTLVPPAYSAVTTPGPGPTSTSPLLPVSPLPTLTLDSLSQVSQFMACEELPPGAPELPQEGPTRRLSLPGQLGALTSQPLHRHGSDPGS
Sequence of Apoptosis regulator Bcl-2 (P10415 whole entry, the tested form may be a part): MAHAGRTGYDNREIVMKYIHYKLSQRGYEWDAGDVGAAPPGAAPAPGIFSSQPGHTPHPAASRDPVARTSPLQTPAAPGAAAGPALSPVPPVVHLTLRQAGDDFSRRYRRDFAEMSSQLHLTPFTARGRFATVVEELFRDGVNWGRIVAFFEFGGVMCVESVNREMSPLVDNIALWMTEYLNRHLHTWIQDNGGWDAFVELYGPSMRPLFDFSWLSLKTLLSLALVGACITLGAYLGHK

## CC(=O)c1ccc(S(=O)(=O)c2c(C)c(C(=O)O)n(CCCOc3cc(C)c(Cl)c(C)c3)c2C)cc1
[1]
  Papp at 4 h: 52.6 ×10⁻⁶ cm/s
[2]
  remaining at 6 h: 85.2%
[3]
  half-life: 2.1 h
[4]
  IC50: > 30 µM
[5]
  half-life: 0.83 h
NCI-H23
  IC50: 3.02 µM
K562 [6]
  Activity: inactive
[7]
  Activity: Non-Toxic
NCI-H929 [8]
  Activity: Dose-Dependent Effect
Bcl-2-like protein 2
  Kd: > 10 µM
[9]
  Activity: Non-Toxic
[10]
  Activity: Non-Toxic
[11]
  microsomal CLint: 67.5 µL/min/mg
MV4-11 [12]
  Activity: Active
[13]
  bioavailability: 41.3%
NCI-H929 [14]
  Activity: Dose-Dependent Effect
[15]
  Activity: Non-Toxic
[16]
  Activity: Non-Toxic
SK-BR-3
  IC50: 2.84 µM
[17]
  Vd: 3.08 L/kg
MV4-11 [18]
  T/C: 5.52%
[19]
  Activity: Non-Toxic
[20]
  remaining at 6 h: 84.5%
MV4-11 [21]
  IC50: 0.7 µM
[22]
  Activity: Non-Toxic
MV4-11 [23]
  Activity: Active
[24]
  remaining at 2 h: 96.5%
P-gp
  Papp A→B: 3.62 ×10⁻⁶ cm/s
[25]
  Tmax: 0.5 h
[26]
  clearance: 15.2 mL/min/kg
[27]
  remaining at 2 h: 100%
[28]
  Activity: Non-Toxic
K562 [29]
  Activity: inactive
[30]
  half-life: 2.3 h
[31]
  Activity: Non-Toxic
[32]
  Kd: > 10 µM
K562 [33]
  IC50: > 30 µM
